Measurements: ChEMBL document CHEMBL1137531, “Structure-based design and synthesis of (5-arylamino-2H-pyrazol-3-yl)-biphenyl-2',4'-diols as novel and potent human CHK1 inhibitors” (J Med Chem, 2007)
pEC50, pIC50, pKi: −log10 of the molar value. One block for each compound: values may come before it. The source made the active and inactive calls. The calls are words filed in the database; no cut-off is given here.

Tests used:
[1] = biological target: T1, Serine/threonine-protein kinase Chk1 (Homo sapiens, UniProt O14757); assay: Inhibition of human CHK1 expressed in baculovirus/insect cell system
T1 sequence (O14757 whole entry): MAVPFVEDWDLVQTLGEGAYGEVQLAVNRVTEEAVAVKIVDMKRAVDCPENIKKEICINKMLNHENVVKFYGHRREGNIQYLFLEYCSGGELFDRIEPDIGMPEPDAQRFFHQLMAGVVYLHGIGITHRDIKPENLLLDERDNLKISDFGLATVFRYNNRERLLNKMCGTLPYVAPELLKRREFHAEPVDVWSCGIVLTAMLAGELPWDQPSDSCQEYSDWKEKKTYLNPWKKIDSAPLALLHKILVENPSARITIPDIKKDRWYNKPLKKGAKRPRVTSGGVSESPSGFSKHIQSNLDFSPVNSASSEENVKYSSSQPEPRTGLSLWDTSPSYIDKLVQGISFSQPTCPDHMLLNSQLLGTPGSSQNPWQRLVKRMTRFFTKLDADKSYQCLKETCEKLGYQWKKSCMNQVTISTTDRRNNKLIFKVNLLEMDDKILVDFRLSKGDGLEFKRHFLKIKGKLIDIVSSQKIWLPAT

[2] = biological target: T1, Serine/threonine-protein kinase Chk1; assay: Activity at human CHK1 in CA46 cells by histone H3 ELISA assay; format: cell-based
[3] = biological target: Protein kinase C zeta type (Homo sapiens) (UniProt Q05513); assay: Inhibition of PKCzeta at 1 uM
[4] = biological target: Serine/threonine-protein kinase Chk2 (Homo sapiens) (UniProt O96017); assay: Inhibition of human CHK2 expressed in Escherichia coli at 1 uM
[5] = biological target: Protein kinase C beta type (Homo sapiens) (UniProt P05771); assay: Inhibition of PKCbeta at 1 uM
[6] = biological target: Cyclin-dependent kinase 2 (Homo sapiens) (UniProt P24941); assay: Inhibition of CDK2 at 1 uM
[7] = biological target: Proto-oncogene tyrosine-protein kinase Src (Homo sapiens) (UniProt P12931); assay: Inhibition of SRC at 1 uM
[8] = biological target: MAP kinase-activated protein kinase 2 (Mus musculus) (UniProt P49138); assay: Inhibition of mouse MAPKAP2 at 1 uM
[9] = biological target: Mitogen-activated protein kinase 1 (Homo sapiens) (UniProt P28482); assay: Inhibition of ERK2 at 1 uM
[10] = biological target: T2, RAC-alpha serine/threonine-protein kinase (Homo sapiens, UniProt P31749); assay: Inhibition of AKT1 at 1 uM
[11] = biological target: Mitogen-activated protein kinase 1 (Homo sapiens) (UniProt P28482); assay: Inhibition of human MAPK1 at 1 uM
[12] = biological target: Protein kinase C alpha type (Homo sapiens) (UniProt P17252); assay: Inhibition of PKCalpha at 1 uM
[13] = biological target: Serine/threonine-protein kinase pim-2 (Homo sapiens, UniProt Q9P1W9); assay: Inhibition of PIM2
[14] = biological target: Dual specificity protein kinase CLK1 (Homo sapiens) (UniProt P49759); assay: Inhibition of CLK at 1 uM
Insulin receptor = Insulin receptor (Homo sapiens, UniProt P06213); assay: Inhibition of INSR
[15] = biological target: Serine/threonine-protein kinase PAK 4 (Homo sapiens, UniProt O96013); assay: Inhibition of PAK4
[16] = biological target: Tyrosine-protein kinase Lck (Homo sapiens, UniProt P06239); assay: Inhibition of human LCK
[17] = biological target: T2, RAC-alpha serine/threonine-protein kinase; assay: Inhibition of AKT1
[18] = Inhibition of human VEGFR expressed in baculovirus/insect cell system by FLVK-P assay
[19] = biological target: Rho-associated protein kinase 1 (Homo sapiens) (UniProt Q13464); assay: Inhibition of ROCK1 activity at 1 uM
[20] = biological target: Glycogen synthase kinase-3 beta (Homo sapiens) (UniProt P49841); assay: Inhibition of GSK3-beta at 1 uM
[21] = biological target: Inhibitor of nuclear factor kappa-B kinase subunit epsilon (Homo sapiens) (UniProt Q14164); assay: Inhibition of IKKi at 1 uM
[22] = biological target: Inhibitor of nuclear factor kappa-B kinase subunit beta (Homo sapiens) (UniProt O14920); assay: Inhibition of IKK-beta at 1 uM
[23] = biological target: Tyrosine-protein kinase ABL1 (Homo sapiens, UniProt P00519); assay: Inhibition of ABL
[24] = biological target: Calcium/calmodulin-dependent protein kinase type 1 (Homo sapiens, UniProt Q14012); assay: Inhibition of CAMK1
Aurora kinase A = Aurora kinase A (Homo sapiens, UniProt O14965); assay: Inhibition of Aurora A
[25] = biological target: Serine/threonine-protein kinase Sgk1 (Homo sapiens, UniProt O00141); assay: Inhibition of human SGK
[26] = Inhibition of bovine PKA
[27] = biological target: Serine/threonine-protein kinase Nek2 (Homo sapiens, UniProt P51955); assay: Inhibition of NEK2
[28] = biological target: Serine/threonine-protein kinase 26 (Homo sapiens, UniProt Q9P289); assay: Inhibition of MASK
[29] = biological target: Casein kinase II (Homo sapiens) (UniProt P67870+P68400+P19784); assay: Inhibition of CK2 at 1 uM; format: protein-complex assay
[30] = biological target: Cyclin-dependent kinase 1 (Homo sapiens, UniProt P06493); assay: Inhibition of CDK1 expressed in Sf21 cells
[31] = biological target: 3-phosphoinositide-dependent protein kinase 1 (Homo sapiens) (UniProt O15530); assay: Inhibition of human PDK1 at 1 uM
[32] = biological target: Serine/threonine-protein kinase Chk1 (Homo sapiens) (UniProt O14757); assay: Activity at human CHK1 in CA46 cells by histone H3 ELISA assay at 1.0 uM; format: cell-based
[33] = biological target: Serine/threonine-protein kinase Chk1 (Homo sapiens) (UniProt O14757); assay: Activity at human CHK1 in CA46 cells by histone H3 ELISA assay at 10 uM; format: cell-based
MDA-MB-231 = assay: Cell cycle arrest in MDA-MB-231 cells assessed as accumulation at S phase by FACS analysis; format: functional, cell-based; details: Homo sapiens

T2 sequence (P31749 whole entry): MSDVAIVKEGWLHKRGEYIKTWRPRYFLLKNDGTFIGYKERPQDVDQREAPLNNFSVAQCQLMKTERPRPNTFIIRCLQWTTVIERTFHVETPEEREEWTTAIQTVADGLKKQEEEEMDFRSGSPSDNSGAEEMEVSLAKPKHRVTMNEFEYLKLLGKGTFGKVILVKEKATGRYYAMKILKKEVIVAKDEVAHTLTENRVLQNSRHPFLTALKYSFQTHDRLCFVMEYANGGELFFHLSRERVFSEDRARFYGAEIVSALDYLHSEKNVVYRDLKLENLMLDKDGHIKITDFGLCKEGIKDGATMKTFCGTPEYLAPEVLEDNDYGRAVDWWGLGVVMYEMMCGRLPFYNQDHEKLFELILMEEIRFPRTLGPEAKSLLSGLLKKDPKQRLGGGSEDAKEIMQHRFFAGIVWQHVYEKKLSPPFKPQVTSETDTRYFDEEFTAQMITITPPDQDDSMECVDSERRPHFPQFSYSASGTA
Mitogen-activated protein kinase 1 (Homo sapiens), sequence (P28482 whole entry): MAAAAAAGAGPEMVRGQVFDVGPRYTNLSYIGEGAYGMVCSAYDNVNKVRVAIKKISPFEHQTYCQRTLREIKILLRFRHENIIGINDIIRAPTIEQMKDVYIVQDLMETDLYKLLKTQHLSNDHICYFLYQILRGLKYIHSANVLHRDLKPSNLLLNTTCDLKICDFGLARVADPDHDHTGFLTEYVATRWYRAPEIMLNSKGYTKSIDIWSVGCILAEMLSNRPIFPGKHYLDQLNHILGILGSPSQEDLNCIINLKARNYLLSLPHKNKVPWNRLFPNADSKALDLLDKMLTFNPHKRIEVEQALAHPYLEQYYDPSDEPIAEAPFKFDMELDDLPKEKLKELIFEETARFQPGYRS
Rho-associated protein kinase 1 (Homo sapiens), sequence (Q13464 2-1354 limits assumed): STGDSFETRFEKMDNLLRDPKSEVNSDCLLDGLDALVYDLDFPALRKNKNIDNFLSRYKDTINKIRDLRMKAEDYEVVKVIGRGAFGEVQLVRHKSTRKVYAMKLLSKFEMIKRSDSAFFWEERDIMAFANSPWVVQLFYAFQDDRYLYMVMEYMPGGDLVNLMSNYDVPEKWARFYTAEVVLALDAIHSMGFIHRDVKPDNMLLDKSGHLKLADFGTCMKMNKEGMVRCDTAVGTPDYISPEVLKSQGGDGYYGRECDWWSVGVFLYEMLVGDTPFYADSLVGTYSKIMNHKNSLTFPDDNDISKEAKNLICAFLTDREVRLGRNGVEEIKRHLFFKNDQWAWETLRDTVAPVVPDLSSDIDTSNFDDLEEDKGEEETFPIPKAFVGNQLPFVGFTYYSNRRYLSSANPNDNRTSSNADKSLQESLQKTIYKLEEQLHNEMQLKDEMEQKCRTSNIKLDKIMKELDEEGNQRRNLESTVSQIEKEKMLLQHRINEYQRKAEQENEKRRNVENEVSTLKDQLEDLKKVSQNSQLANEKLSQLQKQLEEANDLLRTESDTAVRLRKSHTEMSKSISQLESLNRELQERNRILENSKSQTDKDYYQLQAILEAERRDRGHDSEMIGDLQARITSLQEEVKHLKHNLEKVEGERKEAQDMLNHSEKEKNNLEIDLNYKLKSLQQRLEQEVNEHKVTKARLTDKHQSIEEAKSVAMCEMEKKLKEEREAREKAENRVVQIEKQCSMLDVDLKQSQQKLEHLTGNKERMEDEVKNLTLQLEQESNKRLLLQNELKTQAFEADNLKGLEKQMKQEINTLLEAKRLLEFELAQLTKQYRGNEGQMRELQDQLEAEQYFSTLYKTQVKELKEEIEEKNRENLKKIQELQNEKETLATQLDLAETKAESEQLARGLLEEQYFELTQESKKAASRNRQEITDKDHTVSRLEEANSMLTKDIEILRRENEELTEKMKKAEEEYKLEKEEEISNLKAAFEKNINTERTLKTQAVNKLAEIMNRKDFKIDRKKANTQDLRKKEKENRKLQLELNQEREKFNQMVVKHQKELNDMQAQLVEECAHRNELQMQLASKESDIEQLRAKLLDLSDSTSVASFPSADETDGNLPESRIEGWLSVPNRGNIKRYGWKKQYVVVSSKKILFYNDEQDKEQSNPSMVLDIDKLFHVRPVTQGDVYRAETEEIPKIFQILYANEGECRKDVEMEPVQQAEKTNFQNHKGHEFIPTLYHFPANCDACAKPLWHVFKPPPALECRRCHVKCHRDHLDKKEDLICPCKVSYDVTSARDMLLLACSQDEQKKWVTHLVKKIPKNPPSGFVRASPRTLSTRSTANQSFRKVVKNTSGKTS
Tyrosine-protein kinase ABL1, sequence (P00519 whole entry): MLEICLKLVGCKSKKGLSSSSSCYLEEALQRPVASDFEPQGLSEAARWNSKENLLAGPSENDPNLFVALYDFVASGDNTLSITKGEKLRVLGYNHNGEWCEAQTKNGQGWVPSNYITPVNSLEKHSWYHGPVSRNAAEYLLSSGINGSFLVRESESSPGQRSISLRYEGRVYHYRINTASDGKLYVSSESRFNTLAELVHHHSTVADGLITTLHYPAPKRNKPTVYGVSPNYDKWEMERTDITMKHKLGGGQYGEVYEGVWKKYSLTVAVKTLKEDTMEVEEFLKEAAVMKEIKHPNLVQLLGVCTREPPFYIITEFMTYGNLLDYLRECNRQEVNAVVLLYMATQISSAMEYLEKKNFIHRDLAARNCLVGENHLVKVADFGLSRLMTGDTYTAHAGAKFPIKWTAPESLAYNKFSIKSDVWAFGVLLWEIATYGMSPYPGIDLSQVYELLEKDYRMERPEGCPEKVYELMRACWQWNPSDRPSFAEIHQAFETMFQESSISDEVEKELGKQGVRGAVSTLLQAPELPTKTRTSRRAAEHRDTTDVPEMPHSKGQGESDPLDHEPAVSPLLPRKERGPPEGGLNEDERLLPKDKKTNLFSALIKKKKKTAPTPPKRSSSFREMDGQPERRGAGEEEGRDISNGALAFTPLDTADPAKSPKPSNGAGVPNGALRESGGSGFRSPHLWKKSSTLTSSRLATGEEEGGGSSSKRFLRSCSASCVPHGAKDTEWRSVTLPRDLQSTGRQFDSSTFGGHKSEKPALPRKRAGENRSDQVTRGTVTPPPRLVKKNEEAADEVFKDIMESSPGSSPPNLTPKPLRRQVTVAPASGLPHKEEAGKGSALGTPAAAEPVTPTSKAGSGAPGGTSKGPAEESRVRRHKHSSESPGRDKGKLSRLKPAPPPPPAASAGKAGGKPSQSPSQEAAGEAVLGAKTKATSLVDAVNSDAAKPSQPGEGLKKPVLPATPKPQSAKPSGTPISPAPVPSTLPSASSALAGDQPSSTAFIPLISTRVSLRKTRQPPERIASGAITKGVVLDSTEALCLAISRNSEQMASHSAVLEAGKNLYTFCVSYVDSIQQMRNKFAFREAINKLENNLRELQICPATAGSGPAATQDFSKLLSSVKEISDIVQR
Serine/threonine-protein kinase PAK 4, sequence (O96013 whole entry): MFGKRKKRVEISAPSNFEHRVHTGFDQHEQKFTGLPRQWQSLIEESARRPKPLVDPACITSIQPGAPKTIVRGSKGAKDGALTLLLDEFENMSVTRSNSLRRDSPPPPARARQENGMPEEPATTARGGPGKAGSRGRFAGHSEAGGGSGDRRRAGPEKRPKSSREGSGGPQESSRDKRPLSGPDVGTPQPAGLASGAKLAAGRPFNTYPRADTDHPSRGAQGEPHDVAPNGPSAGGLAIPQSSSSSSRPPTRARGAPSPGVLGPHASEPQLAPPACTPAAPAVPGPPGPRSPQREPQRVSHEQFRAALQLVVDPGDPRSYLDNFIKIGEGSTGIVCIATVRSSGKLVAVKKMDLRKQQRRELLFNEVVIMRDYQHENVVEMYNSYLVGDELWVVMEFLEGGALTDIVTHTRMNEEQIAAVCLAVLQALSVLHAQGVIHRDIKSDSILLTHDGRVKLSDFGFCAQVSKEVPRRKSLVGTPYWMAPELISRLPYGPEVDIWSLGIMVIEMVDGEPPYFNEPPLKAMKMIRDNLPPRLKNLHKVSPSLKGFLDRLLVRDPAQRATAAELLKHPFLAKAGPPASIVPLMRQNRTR
Serine/threonine-protein kinase Chk2 (Homo sapiens), sequence (O96017 whole entry): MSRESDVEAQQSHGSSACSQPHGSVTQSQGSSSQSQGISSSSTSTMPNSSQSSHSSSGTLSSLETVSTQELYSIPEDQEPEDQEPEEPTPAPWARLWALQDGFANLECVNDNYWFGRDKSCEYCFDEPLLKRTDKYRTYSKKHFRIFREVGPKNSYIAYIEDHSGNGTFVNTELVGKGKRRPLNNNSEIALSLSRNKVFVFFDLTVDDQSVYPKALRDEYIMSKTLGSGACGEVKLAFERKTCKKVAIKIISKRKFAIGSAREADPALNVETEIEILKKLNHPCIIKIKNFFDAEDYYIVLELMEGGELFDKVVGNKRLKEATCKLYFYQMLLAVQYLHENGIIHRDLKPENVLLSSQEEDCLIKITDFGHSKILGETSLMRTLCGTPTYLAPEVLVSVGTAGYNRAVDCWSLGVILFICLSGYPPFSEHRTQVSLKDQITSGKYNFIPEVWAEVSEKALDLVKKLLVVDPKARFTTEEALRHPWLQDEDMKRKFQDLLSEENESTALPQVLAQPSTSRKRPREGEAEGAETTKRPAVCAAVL
Serine/threonine-protein kinase Sgk1, sequence (O00141 whole entry): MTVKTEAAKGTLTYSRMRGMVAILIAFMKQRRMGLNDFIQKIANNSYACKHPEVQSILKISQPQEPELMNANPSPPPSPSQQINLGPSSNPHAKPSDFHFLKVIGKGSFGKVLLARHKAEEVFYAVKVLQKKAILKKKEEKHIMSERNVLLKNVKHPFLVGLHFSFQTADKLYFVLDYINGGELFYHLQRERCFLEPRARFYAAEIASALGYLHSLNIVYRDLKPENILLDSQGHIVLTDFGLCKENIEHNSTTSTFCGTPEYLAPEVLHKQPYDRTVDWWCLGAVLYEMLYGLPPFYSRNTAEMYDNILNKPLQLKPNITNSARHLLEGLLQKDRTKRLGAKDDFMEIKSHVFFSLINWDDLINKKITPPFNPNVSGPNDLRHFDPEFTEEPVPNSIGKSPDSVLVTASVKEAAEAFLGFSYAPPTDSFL

pKi [1]: 8.92
pEC50 [2]: 6.30
SMILES: Oc1ccc(-c2ccc(-c3cc(Nc4ccccc4)n[nH]3)cc2)c(O)c1

inhibition [3]: 18.6%
inhibition [4]: 27.5%
inhibition [5]: 16%
inhibition [6]: 31%
inhibition [7]: 8%
inhibition [8]: 0.7%
inhibition [9]: -2%
inhibition [10]: 7%
inhibition [11]: 14.5%
inhibition [12]: 0%
pIC50 [13]: 5.76
inhibition [14]: 24%
pIC50 (Insulin receptor): < 4.52
pIC50 [15]: 4.84
pIC50 [16]: 5.59
pIC50 [17]: 4.57
inhibition [19]: 13.5%
inhibition [20]: 30%
inhibition [21]: 26%
inhibition [22]: 12.7%
pIC50 [23]: 5.96
pIC50 [24]: 5.67
pIC50 (Aurora kinase A): 5.00
pIC50 [25]: 6.54
pIC50 [26]: 6.07
pIC50 [27]: 5.98
pIC50 [28]: 5.73
inhibition [29]: 29%
pIC50 [30]: 5.48
inhibition [31]: 33%
SMILES: CC(C)NCc1ccc(Nc2cc(-c3ccc(-c4ccc(O)cc4O)cc3)[nH]n2)cc1
pIC50 [18]: 5.99

pKi [1]: 9.52
pEC50 [2]: 6.82
SMILES: Oc1ccc(-c2ccc(-c3cc(Nc4ccc(CN5CCCCC5)nc4)[nH]n3)cc2)c(O)c1

pKi [1]: 9.10
pEC50 [2]: 6.78
SMILES: Oc1ccc(-c2ccc(-c3cc(Nc4ccc(CNCC5CC5)nc4)[nH]n3)cc2)c(O)c1

pKi [1]: 9.30
pEC50 [2]: 6.26
SMILES: O=C(Nc1ccc(O)cc1O)c1ccc2c(-c3nc4ccccc4[nH]3)n[nH]c2c1

pKi [1]: 9.42
pEC50 [2]: 7.22
SMILES: Oc1ccc(-c2ccc(-c3cc(Nc4ccc(CNC5CC5)cc4)n[nH]3)cc2)c(O)c1

Activity [32]: inactive
Activity [33]: Active
SMILES: O=C(Nc1ccc(O)cc1)c1ccc2c(-c3nc4ccccc4[nH]3)n[nH]c2c1

pKi [1]: 9.70
pEC50 [2]: 6.64
SMILES: CCC(C)NCc1ccc(Nc2cc(-c3ccc(-c4ccc(O)cc4O)cc3)n[nH]2)cn1 (stereo not given)

pKi [1]: 9.74
pEC50 [2]: 7.39
SMILES: Oc1ccc(-c2ccc(-c3cc(Nc4ccc(CN5CCCC5)cc4)n[nH]3)cc2)c(O)c1

pKi [1]: 9.72
pEC50 [2]: 7.24
SMILES: CN(C)Cc1ccc(Nc2cc(-c3ccc(-c4ccc(O)cc4O)cc3)[nH]n2)cc1

SMILES: Nc1ccn([C@@H]2O[C@H](CO)[C@@H](O)C2(F)F)c(=O)n1
Activity (MDA-MB-231): Active
